Experimental data: patent US9079866B2, “Flap modulators” (JANSSEN PHARMACEUTICA NV, priority 2013, dated 2015)
Structures can show the parent of a compound that is named as a salt.

Assays:
[1] = tested on: leukotriene pathway in human whole blood (LTB4 levels); test: Human whole blood assay (A23187-stimulated LTB4); assay type: cell-based; conditions: Homo sapiens, human whole blood diluted 1:1 in RPMI, A23187-stimulated LTB4; read-out: LTB4 IC50 1:1
How it was run: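 Heparinised human whole blood diluted 1:1 in RPMI, pre-incubated 15 min at 37° Celsius with compound, then stimulated with A23187 (7 μg/mL) for 30 min at 37° Celsius. Plasma LTB4 measured by immunoassay kit; IC50 from 4-parameter fit; single replicate per plate, at least one healthy donor.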

human FLAP = human FLAP (Homo sapiens (Human), UniProt P20292); test: FLAP binding assay (HTRF format); conditions: human FLAP wild type, HTRF format; average of two plates, duplicates
How it was run: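 Samples were run in duplicate on each of two plates and the plate results averaged. Read-out is the HTRF signal ratio.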

Sequence of human FLAP (P20292 whole entry): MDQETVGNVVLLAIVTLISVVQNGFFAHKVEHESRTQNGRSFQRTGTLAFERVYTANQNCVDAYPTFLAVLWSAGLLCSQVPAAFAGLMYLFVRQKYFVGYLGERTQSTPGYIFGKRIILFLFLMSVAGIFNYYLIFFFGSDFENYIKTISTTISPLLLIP

Row | Structure (SMILES) | IC50 [1] [nM] | Ki (human FLAP) [nM]
1 | NCCNS(=O)(=O)c1ccccc1-c1ccc(-c2cnc(N)cn2)c(F)c1 [Example 152, N-(2-Aminoethyl)-4′-(5-aminopyrazin-2-yl)-3′-fluorobiphenyl-2-sulfonamide] | 537 | 81
2 | Nc1cnc(-c2ccc(-c3ccccc3S(=O)(=O)N[C@H]3CCNC3)cc2F)cn1 [Example 154, (S)-4′-(5-Aminopyrazin-2-yl)-3′-fluoro-N-(pyrrolidin-3-yl)-[1,1′-biphenyl]-2-sulfonamide] | 1040 | 29
3 | C[C@H](NS(=O)(=O)c1ccccc1-c1ccc(-c2cnc(N)cn2)c(F)c1)C(=O)O [Example 156, (S)-2-(4′-(5-Aminopyrazin-2-yl)-3′-fluoro-[1,1′-biphenyl]-2-ylsulfonamido)propanoic acid] | > 10000 | 351
4 | NC(=O)NCCNS(=O)(=O)c1ccccc1-c1ccc(-c2cnc(N)cn2)c(F)c1 [Example 157, 4′-(5-Aminopyrazin-2-yl)N—N-[2-(carbamoylamino)ethyl]-3′-fluorobiphenyl-2-sulfonamide] | 1840 | 10
5 | Nc1cnc(-c2ccc(-c3ccccc3S(=O)(=O)N[C@H]3CCCC[C@@H]3O)cc2F)cn1 [Example 162, 4′-(5-Aminopyrazin-2-yl)-3′-fluoro-N-((1S,2S)-2-hydroxycyclohexyl)-[1,1′-biphenyl]-2-sulfonamide] | 122 | 5
6 | Nc1cnc(-c2ccc(-c3ccccc3S(=O)(=O)Nc3ccc(C(F)(F)F)nc3)cc2F)cn1 [Example 163, 4′-(5-Aminopyrazin-2-yl)-3′-fluoro-N-[6-(trifluoromethyl)pyridin-3-yl]biphenyl-2-sulfonamide] | 595 | 1
7 | Nc1cnc(-c2ccc(-c3ccccc3S(=O)(=O)N3CCC(c4c[nH]cn4)CC3)cc2F)cn1 [Example 164, 5-(3-Fluoro-2′-{[4-(1H-imidazol-4-yl)piperidin-1-yl]sulfonyl}biphenyl-4-yl)pyrazin-2-amine] | 333 | 1
8 | Cc1ncc(CNS(=O)(=O)c2ccccc2-c2ccc(-c3cnc(N)cn3)c(F)c2)c(N)n1 [Example 165, N-[(4-Amino-2-methylpyrimidin-5-yl)methyl]-4′-(5-aminopyrazin-2-yl)-3′-fluorobiphenyl-2-sulfonamide] | 879 | 18
9 | COc1cc(NS(=O)(=O)c2ccccc2-c2ccc(-c3cnc(N)cn3)c(F)c2)nc(OC)n1 [Example 166, 4′-(5-Aminopyrazin-2-yl)-N-(2,6-dimethoxypyrimidin-4-yl)-3′-fluorobiphenyl-2-sulfonamide] | 4460 | 164
10 | Cc1cnc(NS(=O)(=O)c2ccccc2-c2ccc(-c3cnc(N)cn3)c(F)c2)cn1 [Example 167, 4′-(5-Aminopyrazin-2-yl)-3′-fluoro-N-(5-methylpyrazin-2-yl)biphenyl-2-sulfonamide] | 442 | 47
11 | CC(C)C[C@H](NS(=O)(=O)c1ccccc1-c1ccc(-c2cnc(N)cn2)c(F)c1)C(N)=O [Example 168, (S)-2-(4′-(5-Aminopyrazin-2-yl)-3′-fluoro-[1,1′-biphenyl]-2-ylsulfonamido)-4-methylpentanamide] | 135 | 14
12 | CN(C)S(=O)(=O)Nc1ccccc1-c1ccc(-c2cnc(N)cn2)c(F)c1 [Example 182, N′-[4′-(5-Aminopyrazin-2-yl)-3′-fluorobiphenyl-2-yl]-N,N-dimethylsulfamide] | 217 | 20
13 | Nc1cnc(-c2ccc(-c3ccccc3NS(=O)(=O)N3CCOCC3)cc2F)cn1 [Example 183, N-[4′-(5-Aminopyrazin-2-yl)-3′-fluorobiphenyl-2-yl]morpholine-4-sulfonamide] | 130 | 34
14 | Nc1cnc(-c2ccc(-c3ccccc3SC(F)(F)F)cc2F)cn1 [Example 189, 5-{3-Fluoro-2′-[(trifluoromethyl)sulfanyl]biphenyl-4-yl}pyrazin-2-amine] | 1650 | 173
15 | CC(C)(C)Sc1ccccc1-c1ccc(-c2cnc(N)cn2)c(F)c1 [Example 190, 5-[2′-(tert-Butylsulfanyl)-3-fluorobiphenyl-4-yl]pyrazin-2-amine] | 471 | 58
16 | CCCS(=O)(=O)c1ccccc1-c1ccc(-c2cnc(N)cn2)c(F)c1 [Example 192, 5-[3-Fluoro-2′-(propylsulfonyl)biphenyl-4-yl]pyrazin-2-amine] | 171 | 58
17 | CC(C)CS(=O)(=O)c1ccccc1-c1ccc(-c2cnc(N)cn2)c(F)c1 [Example 193, 5-{3-Fluoro-2′-[(2-methylpropyl)sulfonyl]biphenyl-4-yl}pyrazin-2-amine] | 144 | 26
18 | CCCCCCS(=O)(=O)c1ccccc1-c1ccc(-c2cnc(N)cn2)c(F)c1 [Example 198, 5-[3-Fluoro-2′-(hexylsulfonyl)biphenyl-4-yl]pyrazin-2-amine] | 375 | 83
19 | CC(C)S(=O)(=O)c1ccccc1-c1ccc(-c2cnc(N)cn2)c(F)c1 [Example 199, 5-{3-Fluoro-2′-[(1-methylethyl)sulfonyl]biphenyl-4-yl}pyrazin-2-amine] | 250 | 39
20 | NC(=O)CSc1ccccc1-c1ccc(-c2cnc(N)cn2)c(F)c1 [Example 200, 2-{[4′-(5-Aminopyrazin-2-yl)-3′-fluorobiphenyl-2-yl]sulfanyl}acetamide] | 176 | 35
21 | CCN(CC)C(=O)CSc1ccccc1-c1ccc(-c2cnc(N)cn2)c(F)c1 [Example 201, 2-{[4′-(5-Aminopyrazin-2-yl)-3′-fluorobiphenyl-2-yl]sulfanyl}-N,N-diethylacetamide] | 358 | 21

Stronger by IC50 [1], values ahead:

Row | IC50 [1] [nM] | Ki (human FLAP) [nM] | Structure (SMILES)
22 | 11 | 1 | CC(C)(C)[C@H](CO)NS(=O)(=O)c1ccccc1-c1ccc(-c2cnc(N)cn2)c(F)c1 [Example 150, (R)-4′-(5-Aminopyrazin-2-yl)-3′-fluoro-N-(1-hydroxy-3,3-dimethylbutan-2-yl)-[1,1′-biphenyl]-2-sulfonamide]
23 | 114 | 1 | CC(C)(C)OC(=O)NCCNS(=O)(=O)c1ccccc1-c1ccc(-c2cnc(N)cn2)c(F)c1 [Example 151, tert-Butyl [2-({[4′-(5-aminopyrazin-2-yl)-3′-fluorobiphenyl-2-yl]sulfonyl}amino)ethyl]carbamate]
24 | 7 | 3 | CC[C@@H](CO)NS(=O)(=O)c1ccccc1-c1ccc(-c2cnc(N)cn2)c(F)c1 [Example 153, (S)-4′-(5-Aminopyrazin-2-yl)-3′-fluoro-N-(1-hydroxybutan-2-yl)-[1,1′-biphenyl]-2-sulfonamide]
25 | 103 | 12 | CC(=O)NCCNS(=O)(=O)c1ccccc1-c1ccc(-c2cnc(N)cn2)c(F)c1 [Example 155, N-[2-({[4′-(5-Aminopyrazin-2-yl)-3′-fluorobiphenyl-2-yl]sulfonyl}amino)ethyl]acetamide]
26 | 1 | 1 | Nc1cnc(-c2ccc(-c3ccccc3S(=O)(=O)N[C@H]3c4ccccc4C[C@@H]3O)cc2F)cn1 [Example 158, 4′-(5-Aminopyrazin-2-yl)-3′-fluoro-N-((1S,2S)-2-hydroxy-2,3-dihydro-1H-inden-1-yl)-[1,1′-biphenyl]-2-sulfonamide]
27 | 1 | 1 | Nc1cnc(-c2ccc(-c3ccccc3S(=O)(=O)N[C@@H]3c4ccccc4C[C@H]3O)cc2F)cn1 [Example 159, 4′-(5-Aminopyrazin-2-yl)-3′-fluoro-N-((1R,2R)-2-hydroxy-2,3-dihydro-1H-inden-1-yl)-[1′,1′-biphenyl]-2-sulfonamide]
28 | 20 | 4 | N#CCCN(C1CC1)S(=O)(=O)c1ccccc1-c1ccc(-c2cnc(N)cn2)c(F)c1 [Example 172, 4′-(5-Aminopyrazin-2-yl)-N-(2-cyanoethyl)-N-cyclopropyl-3′-fluorobiphenyl-2-sulfonamide]
29 | 17 | 1 | CC1(NS(=O)(=O)c2ccccc2-c2ccc(-c3cnc(N)cn3)c(F)c2)COC1 [Example 173, 4′-(5-Aminopyrazin-2-yl)-3′-fluoro-N-(3-methyloxetan-3-yl)biphenyl-2-sulfonamide]
30 | 23 | 2 | N#CCCN1CCN(S(=O)(=O)c2ccccc2-c2ccc(-c3cnc(N)cn3)c(F)c2)CC1 [Example 174, 3-(4-{[4′-(5-Aminopyrazin-2-yl)-3′-fluorobiphenyl-2-yl]sulfonyl}piperazin-1-yl)propanenitrile]
31 | 17 | 1 | COC[C@H](C)NS(=O)(=O)c1ccccc1-c1ccc(-c2cnc(N)cn2)c(F)c1 [Example 175, (S)-4′-(5-Aminopyrazin-2-yl)-3′-fluoro-N-(1-methoxypropan-2-yl)-[1,1′-biphenyl]-2-sulfonamide]
32 | 51 | 10 | Nc1cnc(-c2ccc(-c3ccccc3S(=O)(=O)N3CC[C@@H](O)C3)cc2F)cn1 [Example 185, (3R)-1-{[4′-(5-Aminopyrazin-2-yl)-3′-fluorobiphenyl-2-yl]sulfonyl}pyrrolidin-3-ol trifluoroacetic acid salt]
33 | 93 | 3 | Nc1cnc(-c2ccc(-c3ccccc3S(=O)(=O)C3CCCC3)cc2F)cn1 [Example 195, 5-[2′-(Cyclopentylsulfonyl)-3-fluorobiphenyl-4-yl]pyrazin-2-amine]
34 | 104 | 10 | Nc1cnc(-c2ccc(-c3ccccc3S(=O)(=O)C3CCC3)cc2F)cn1 [Example 196, 5-[2′-(Cyclobutylsulfonyl)-3-fluorobiphenyl-4-yl]pyrazin-2-amine]
35 | 83 | 10 | Nc1cnc(-c2ccc(-c3ccccc3S(=O)(=O)C3CC3)cc2F)cn1 [Example 197, 5-[2′-(Cyclopropylsulfonyl)-3-fluorobiphenyl-4-yl]pyrazin-2-amine]
